Here are results for 19 molecules from patent US7084178B2, “Antiamyloid phenylsulfonamides: N-cycloalkylcarboxamides derivatives” (Bristol-Myers Squibb Company, priority 2003, dated 2006).

What is called IC50 is the point on the concentration scale where inhibition reaches its midpoint.

The test system of the first assay is Aβ formation in H4 cells stably transfected to overexpress the HPLAP-APP fusion protein. In words: Inhibition of β-amyloid peptide formation in human H4 cells. It is filed as cell-based. Particulars: H4 cells overexpressing HPLAP-APP, 18 hrs at 37° C. Here is the method: γ-Secretase inhibitors can also be evaluated using in vitro assays based on the inhibition of Aβ formation in cultured cells. Cultured human cell lines, such as HEK293 and H4 cells, which express APP and γ-secretase activity or transfected derivative cell lines that overexpress wild-type APP, mutant APP, or APP fusion proteins will secrete Aβ peptides into the culture media that can be quantified as previously outlined (Dovey, H., John, V. et al., J. Neurochem. 2001, 76, 173–181). The incubation of these cultured cells with γ-secretase inhibitors decreases the production of Aβ peptides. For instance, H4 cells stably transfected to overexpress the HPLAP-APP fusion protein described above were grown as above, detached, and adjusted to 2×10^5 cells/ml. 100 μl of the resulting suspension was then added to each well of a 96-well plate. After 4 hrs, the media was removed and replaced with 100 μl serum-free media containing various dilutions of the test compound. Plates were then incubated for 18 hrs at 37° C. and a 100 μl aliquot of the tissue culture supernatant was removed for determination of Aβ levels using time-resolved fluorescence of the homogenous sample as outlined above. Alternately, the other methods described above for Aβ determination could be used. The extent of Aβ inhibition was used to calculate the IC50 value for the test compound.
In Table 2, an inhibitory concentration (IC50) of less than or equal to 50 nM is represented by +++; between 50 nM and 500 nM by ++; between 500 nM and 50000 nM by +.
“(1S,2R)-2-[(4- Chlorobenzenesulfonyl)-[4-( -hydroxy-1-methyl-ethyl)-benzyl]-amino]-cyclohexanecarboxylic acid amide [Example 6]” registered an IC50 of at most 50 nM.

The assay is the same for the next values; noted with them: Homo sapiens; H4 cells overexpressing HPLAP-APP, 18 hrs at 37° C.
`NC(=O)[C@@H]1CCCC[C@@H]1N(Cc1ccc(C(F)(F)F)cc1)S(=O)(=O)c1ccc(Cl)cc1` (relative stereo) [Example 10, cis-2-[(4-Chlorobenzenesulfonyl)-(4-trifluoromethyl-benzyl)-amino]-cyclohexanecarboxylic acid amide] yielded an IC50 of 50 to 500 nM.

In turn, `COC(=O)c1ccc(CN([C@@H]2CCCC[C@@H]2C(N)=O)S(=O)(=O)c2ccc(Cl)cc2)cc1` (relative stereo) [Example 13, cis-4-[[(2-Carbamoyl-cyclohexyl)-(4-chlorobenzenesulfonyl)-amino]-methyl]-benzoic acid methyl ester] yielded a concentration for half-maximal inhibition (IC50) of at most 50 nM.

With `N#Cc1ccc(CN([C@H]2CCCCC[C@H]2C(N)=O)S(=O)(=O)c2ccc(Cl)cc2)cc1` (relative stereo) [Example 21, cis-2-[(4-Chlorobenzenesulfonyl)-(4-cyano-benzyl)-amino]-cycloheptanecarboxylic acid amide], the IC50 lay in the range of 500 to 50000 nM.

Take `CCNC(=O)c1ccc(CN([C@H]2CCCCC[C@H]2C(N)=O)S(=O)(=O)c2ccc(Cl)cc2)cc1` (relative stereo) [Example 24, cis-2-[(4-Chlorobenzenesulfonyl)-(4-ethylcarbamoyl-benzyl)-amino]-cycloheptanecarboxylic acid amide]: the IC50 was at most 50 nM.

In the case of `COC(=O)c1ccc(CN([C@@H]2CCCC[C@@H]2C(N)=O)S(=O)(=O)c2ccc(Cl)cc2)cc1` [Example 1, 4-[[(1R,2S)-(2-Carbamoyl-cyclohexyl)-(4-chlorobenzenesulfonyl)-amino]-methyl]-benzoic acid methyl ester], the IC50 is at most 50 nM.

In turn, `CCNC(=O)c1ccc(CN([C@@H]2CCCC[C@@H]2C(N)=O)S(=O)(=O)c2ccc(Cl)cc2)cc1` [Example 2, 4-[[(1R,2S)-(2-Carbamoyl-cyclohexyl)-(4-chlorobenzenesulfonyl)-amino]-methyl]-N-ethyl-benzamide] yielded a 50% inhibitory concentration (IC50) of at most 50 nM.

Regarding `CC(C)(C)c1ccc(CN([C@@H]2CCCC[C@@H]2C(N)=O)S(=O)(=O)c2ccc(Cl)cc2)cc1` [Example 3, (1S,2R)-2-[(4-tert-Butyl-benzyl)-(4-chlorobenzenesulfonyl)-amino]-cyclohexanecarboxylic acid amide], the IC50 is 50 to 500 nM.

For the molecule `NC(=O)[C@H]1CCCC[C@H]1N(Cc1ccc(OC(F)(F)F)c(Cl)c1)S(=O)(=O)c1ccc(Cl)cc1` [Example 4, (1S,2R)-2-[(4-Chlorobenzenesulfonyl)-(3-chloro-4-trifluoromethoxy-benzyl)-amino]-cyclohexanecarboxylic acid amide], the IC50 is 50 to 500 nM.

For the molecule `NC(=O)[C@H]1CCCC[C@H]1N(Cc1ccc(F)c(Cl)c1)S(=O)(=O)c1ccc(Cl)cc1` [Example 5, (1S,2R)-2-[(4-Chlorobenzenesulfonyl)-(3-chloro-4fluoro-benzyl)-amino]-cyclohexanecarboxylic acid amide], the IC50 fell in the range of 50 to 500 nM.

For `NC(=O)[C@H]1CCCC[C@H]1N(Cc1ccc(Cl)s1)S(=O)(=O)c1ccc(Cl)cc1` [Example 7, (1S,2R)-2-[(4-Chlorobenzenesulfonyl)-(5-chloro-thiophen-2-ylmethyl)-amino]-cyclohexanecarboxylic acid amide], the IC50 was at most 50 nM.

For the molecule `NC(=O)[C@H]1CCCC[C@H]1N(Cc1ccc(SC(F)(F)F)cc1)S(=O)(=O)c1ccc(Cl)cc1` [Example 8, (1S,2R)-2-[(4-Chlorobenzenesulfonyl)-(4-trifluoromethylsulfanyl-benzyl)-amino]-cyclohexanecarboxylic acid amide], the IC50 is at most 50 nM.

In a further assay the test system is γ-secretase. The assay can be described thus: Competitive in vitro binding assay with [3H]-Compound A and membranes from THP-1 cells. Particulars: displacement of [3H]-Compound A, THP-1 cell membranes, 23° C., 1.3 hr; read-out: Binding affinity (IC50 in nM). An excerpt: Competitive in vitro binding assays can be used to identify compounds that inhibit γ-secretase activity. For example, [^3H]-Compound A can be used for binding assays with membranes from THP-1 cells (Seiffert, D.; Bradley, J. et al., J. Biol. Chem. 2000, 275, 34086–34091). Compound A is (2R,3S) N1-[(3S)-hexahydro-1-(3-phenoxybenzyl)-2-oxo-1H-azepin-3-yl]-2-(2methylpropyl)-3-(propyl)-butanediamide, which is described in U.S. patent U.S. Pat. No. 6,331,408 (Dec. 18, 2001); PCT Publication WO 00/28331; PCT Publication WO 00/07995; and Seiffert, D., Bradley, J. et al., J. Biol. Chem. 2000, 275. 34086–34091.
To evaluate the compounds of this invention using this assay, THP-1 cells were grown in spinner cultures in RPMI 1640 containing L-glutamine and 10 μM β-mercaptoethanol to a density of 5×10^5 cells/ml. Cells were harvested by centrifugation and cell pellets were quick frozen in dry ice/ethanol and stored at −70° C. prior to use. The pellets of approximately 2×10^4 THP-1 cells were homogenized using a Brinkman Polytron at setting 6 for 10 sec. The homogenate was centrifuged at 48,000×g for 12 min, and the resulting pellet was washed by repeating the homogenization and centrifugation. The final cell pellet was resuspended in buffer to yield a protein concentration of approximately 0.5 mg/ml. Assays were initiated by the addition of 150 μl of membrane suspension to 150 μl of assay buffer containing 0.064 μCi of radioligand and various concentrations of unlabeled compounds. Binding assays were performed in duplicate in polypropylene 96-well plates in a final volume of 0.3 ml containing 50 mM Hepes, pH 7.0, and 5% dimethyl sulfoxide. Nonspecific binding was defined using incubations with 300 nM compound A (Seiffert, D., Bradley, J. et al., J. Biol. Chem. 2000, 275, 34086–34091). After incubating at 23° C. for 1.3 hr, bound ligand was separated from free radioligand by filtration over GFF glass fiber filters presoaked in 0.3% ethyleneimine polymer solution. Filters were washed three times with 0.3 ml of ice cold phosphate-buffered saline, pH 7.0, containing 0.1% Triton X-100. Filter-bound radioactivity was measured by scintillation counting. IC50 values were then determined and used to calculate Ki values using the Cheng-Prusoft correction for IC50 values.
The compounds of this invention were evaluated in the assay described above, as well as with other evaluation methods, and found to be inhibitors of γ-secretase. In the table, an inhibitory concentration (IC50) of less than or equal to 50 nM is represented by +++; between 50 nM and 500 nM by ++; between 500 nM and 10000 nM by +.
(In general: Displacement assays read how much labelled ligand stays bound in the presence of the test substance.)
With `COC(=O)c1ccc(CN([C@@H]2CCCCC[C@@H]2C(N)=O)S(=O)(=O)c2ccc(Cl)cc2)cc1` (relative stereo) [Example 20, cis-4-[[(2-Carbamoyl-cycloheptyl)-(4-chlorobenzenesulfonyl)-amino]-methyl]-benzoic acid methyl ester], the IC50 fell in the range of 50 to 500 nM.

As to `NC(=O)[C@@H]1CCCCC[C@@H]1N(Cc1ccc(-n2cccn2)cc1)S(=O)(=O)c1ccc(Cl)cc1` (relative stereo) [Example 23, cis-2-[(4-Chlorobenzenesulfonyl)-(4-pyrazol-1-yl-benzyl)-amino]-cycloheptanecarboxylic acid amide], the IC50 lay within 500 to 10000 nM.

On to `COC(=O)c1ccc(CN([C@@H]2CCCC[C@@H]2C(N)=O)S(=O)(=O)c2ccc(Cl)cc2)cc1` [Example 1, 4-[[(1R,2S)-(2-Carbamoyl-cyclohexyl)-(4-chlorobenzenesulfonyl)-amino]-methyl]-benzoic acid methyl ester], for which the IC50 was at most 50 nM.

On to `CCNC(=O)c1ccc(CN([C@@H]2CCCC[C@@H]2C(N)=O)S(=O)(=O)c2ccc(Cl)cc2)cc1` [Example 2, 4-[[(1R,2S)-(2-Carbamoyl-cyclohexyl)-(4-chlorobenzenesulfonyl)-amino]-methyl]-N-ethyl-benzamide], for which the IC50 was at most 50 nM.

Take `CCNC(=O)c1ccc(CN([C@@H]2CCCC[C@@H]2C(N)=O)S(=O)(=O)c2ccc(Cl)cc2)cc1` [Example 28, 4-[[(1R,2S)-(2-Carbamoyl-cyclohexyl)-(4-chlorobenzenesulfonyl)-amino]-methyl]-N-ethyl benzamide]: the IC50 is 500 to 10000 nM.

As to `CCNC(=O)c1ccc(CN([C@H]2CCCC[C@@H]2C(N)=O)S(=O)(=O)c2ccc(Cl)cc2)cc1` [Example 29, 4-[[(1S,2S)-(2-Carbamoyl-cyclohexyl)-(4-chlorobenzenesulfonyl)-amino]-methyl]-N-ethyl benzamide], the half-maximal inhibitory concentration (IC50) was in the range of 50 to 500 nM.

With `CCNC(=O)c1ccc(CN([C@@H]2CCCC[C@H]2C(N)=O)S(=O)(=O)c2ccc(Cl)cc2)cc1` [Example 30, 4-[[(1R,2R)-(2-Carbamoyl-cyclohexyl)-(4-chlorobenzenesulfonyl)-amino]-methyl]-N-ethyl benzamide], the IC50 fell in the range of 50 to 500 nM.

On to `CCNC(=O)c1ccc(CN([C@@H]2CCC[C@@H]2C(N)=O)S(=O)(=O)c2ccc(Cl)cc2)cc1` [Example 31, 4-[[(1R,2S)-(2-Carbamoyl-cyclopentyl)-(4-chlorobenzenesulfonyl)-amino]-methyl]-N-ethyl-benzamide], for which the IC50 lay in the range of 50 to 500 nM.

With `CCNC(=O)c1ccc(CN([C@@H]2CCC[C@H]2C(N)=O)S(=O)(=O)c2ccc(Cl)cc2)cc1` [Example 32, 4-[[(1R,2R)-(2-Carbamoyl-cyclopentyl)-(4-chlorobenzenesulfonyl)-amino]-methyl]-N-ethyl-benzamide], the IC50 lay within 500 to 10000 nM.
